Assay results published in US7879792B2, “Synthetic peptide inhibitors of thrombin and thrombin activation of protease activated receptors 1 and 4” (The Regents of the University of Michigan, priority 2005, dated 2011).
Where two headings read alike, the source gives them in different places. One block for each compound: values may come before it. Where a SMILES comes first, the peptide text is derived from it.

Experiments:
[1] = stability testing in intestinal perfusate; type: in vitro ADME; settings: rat, 37° C.; for half-life: intestinal perfusate
Procedure: (§1) Stability testing of the various compounds was performed in buffer, intestinal perfusate, and an intestinal homogenate preparation to assess the potential oral availability of these compounds. Initial studies prepared the tissue for stability studies. The buffer used in stability testing is 10 mM MES (pH 6.5) containing 135 mM NaCl, and 5 mM KCl. To collect intestinal perfusate from rats, male Sprague Dawley rats, 8 to 10 weeks old, weighing 250 to 350 g were fasted 15 to 18 hours with water given ad libitum. Anesthesia was administered by intramuscular injection of pentobarbital/ketamine (40 mg/kg and 80 mg/kg, respectively). The rats were placed on a warming pad under a surgical lamp to maintain body temperature and jejunal intestinal segments were exposed through a midline, abdominal incision. Approximately 20 cm segment of the jejunum (2 to 4 cm distal to the ligament of Treitz) was cannulated and the intestinal segments were perfused with 10 mM MES (pH 6.5) containing 135 mM NaCl, and 5 mM KCl at a flow-rate of 0.5 ml/min at 37° C. using a constant infusion pump (Harvard Apparatus, South Natick, Mass.). The collected perfusate was stored at −80° C. until use for ex vivo stability studies. After collection, the perfused intestinal segments were flushed with ice-cold 0.15 M KCl solution and the animal was euthanized and the jejunal intestinal segment detached. The inner intestinal tissue layers are scraped out and homogenized in MES buffer (pH 6.5) in a ratio of 1 part of intestinal tissue to 5 parts buffer. Total protein content of the perfusate and the homogenate were determined using a Biorad protein assay kit. The intestinal homogenate samples were used immediately or rapidly frozen at −80° C. until stability analysis.
(§2) The actual stability testing protocol is as follows: A 0.1 ml aliquot of the synthetic peptide solution (1 mg/ml) was added to 0.9 ml of MES buffer, pH 6.5, intestinal perfusate, or intestinal homogenate at 37° C. Samples were mixed by vortexing and 100 microliter aliquots were removed over a 60 to 90 minute period for analysis of breakdown products. The 100 microliter sample aliquots were diluted 10 fold with water and subjected to solid phase extraction using a Waters Oasis HLB column. Briefly, the columns were preconditioned by passing 1 ml of MeOH and 1 ml of water over the column, and 1 ml of sample was added to the column. The column was washed with 5% methanol:95% water solution to remove proteins and salts, then eluted with 1 ml of 100% methanol. The methanol was removed by vacuum, and the sample was reconstituted in mobile phase for LC/MS/MS analysis.
(§3) LC/MS/MS analysis was performed on a HP1100 HPLC (Hewlett Packard) interfaced with a Quattro II MS/MS detector (Waters/Micromass). For the HPLC separation, a 10 μL aliquot of sample in a mobile phase consisting of an equal volume mixture of acetonitrile/water containing 0.5% formic acid was injected onto a 150 mm×2.2 mm, 5 μm C8 column (Higgins Analytical Inc) and developed at a flow rate of 0.2 ml/min for 5 minutes. The MS detector was used in single ion recording mode at a cone voltage of 50 Volts.

[2] = rat intestinal in situ perfusion permeability; type: in vivo; settings: rat
Procedure: To determine the intestinal permeability of the various peptide analogs, male albino Sprague-Dawley rats, 9-10 weeks old and weighing 250-350 g were fasted for 18 hours with free access to water. The rats were anesthetized with an intramuscular injection of ketamine/xylazine/butorphanol (87 mg/kg, 6 mg/kg, and 0.2 mg/kg body weight, respectively). The abdomen was opened by a 4-5 cm midline incision and a 10 cm jejunal segment was cannulated on two ends and connected to a syringe pump that pumps the perfusing solution through the cannulated intestine at a constant rate and at a temperature of 37° C. The isolated segment was rinsed with 10 mM MES (pH 6.5) at a flow-rate of 0.5 ml/min in order to clean out any residual debris. Jejunal perfusion was subsequently performed with the same buffer containing 135 mM NaCl, 5 mM KCl and 0.01% PEG 4000 at a flow rate of 0.2 ml/min containing test compound, internal permeability reference standards (e.g., metoprolol) and ^14C-PEG 4000 as a non-absorbable marker for measuring water flux. After steady-state is reached within the perfused intestinal segment, typically 30 minutes after start of perfusion, samples were taken at 10 minute intervals for 1 hour. ^14C (PEG-4000) levels are assayed by scintillation counting and test compounds and internal permeability standard analysis by LC/MS/MS. Samples are frozen and stored at −80° C. until analysis.
The effective permeability (Peff) determined from the in situ perfusion is calculated from equation 1
[formula] where Q is the perfusion buffer flow rate, C′out is the outlet concentration of the compound that has been adjusted for water transport (equation 2) after passing through the intestinal segment, C′in is the inlet or starting concentration of the compound, R is the radius of the intestinal segment (set to 0.2 cm) and L is the length of the intestinal segment. To correct for water transport, a non-absorbed radioactive tracer, ^14C PEG-4000, is included in the perfusion buffer. The Cout/Cin ratio is corrected for water transport according to equation 2:
[formula] where Aout-A0 is equal to the radioactivity counts in the outlet sample minus background (dpm) and Ain-A0 is equal to the radioactivity counts in the inlet sample minus background (dpm).
In certain instances, in addition to perfusing the intestinal segment as described, plasma is drawn through a portal vein cannula to determine the amount of material entering the portal system during the perfusion. This additional experimental step can aid in determining the true intestinal permeability of unstable compounds. After steady state conditions are reached as described above, 0.5 ml aliquots of plasma are withdrawn from the portal vein at regular intervals throughout the experimental time frame. The plasma samples are deproteinated with acetonitrile and the sample is subjected to SPE and LC/MS analysis as described above. From the plasma concentration of compound, the mesenteric permeability can be determined by substitution into equation 3: Flux=A*Pe-mes*Ci 3) where Flux is equal to the portal blood flow (estimated at 1 ml/min in the rat)×the steady state mesenteric blood concentration of the peptide analogs, A is the absorptive area of the intestine (estimated at 12.56 cm^2 in the rat intestine), Pe-mes is the mesenteric Permeability (cm/sec), and Ci is the starting concentration of drug in the perfusate (ug/ml).

[3] = stability testing in intestinal homogenate; type: in vitro ADME; settings: rat
Procedure: as §1, §2, §3

[4] = read-out: t1/2 (min) Intestinal Perfusate

half-life at 0.1 mg/ml ([1]; male, Sprague Dawley, intestinal (jejunal) perfusate, pH 6.5, rat, read-out: t1/2 (min) Intestinal Perfusate): 91.8 min
SMILES: N=C(N)NCCC[C@H](N)C(=O)N1CCC[C@H]1C(=O)N1CCC[C@H]1C(=O)O [RPP, Arg-Pro-Pro, reference compound] (H-Arg-Pro-Pro-OH; C-terminus assumed)

half-life [1, 4]: 205 min
SMILES: N=C(N)NCCC[C@@H](N)C(=O)N1[C@H](C(=O)N2C[C@H](O)C[C@H]2C(=O)NCC(=O)N[C@H](C(N)=O)C2Cc3ccccc3C2)C[C@@H]2CCCC[C@@H]21 [rOicHypGIdg] (HELM PEPTIDE1{[dR].[O=C([C@@H]1C[C@@H]2CCCC[C@@H]2N1[*:1])[*:2]].[Hyp].G.[O=C([C@@H](N[*:1])C1Cc2ccccc2C1)[*:2]].[am]}$$$$V2.0)

half-life [1, 4]: 56.1 min
SMILES: N=C(N)NCCC[C@@H](N)C(=O)N1[C@H](C(=O)N2CCC[C@H]2C(=O)NCC(=O)N[C@H](C(N)=O)C2Cc3ccccc3C2)C[C@@H]2CCCC[C@@H]21 [rOicPGIdg] (HELM PEPTIDE1{[dR].[O=C([C@@H]1C[C@@H]2CCCC[C@@H]2N1[*:1])[*:2]].P.G.[O=C([C@@H](N[*:1])C1Cc2ccccc2C1)[*:2]].[am]}$$$$V2.0)

Papp ([2]; from portal vein plasma during perfusion, read-out: Permeability (mesenteric)): 1.63 ×10⁻⁶ cm/s
Papp ([2]; rat jejunal in situ perfusion, read-out: Permeability (in situ)): 7.6 ×10⁻⁶ cm/s
t1/2 (min) Intestinal Perfusate [1]: stable
half-life ([3]; intestinal homogenate, 37° C., read-out: t1/2 (min) Intestinal Homogenate): 935 min
stability in intestinal homogenate (FIG. 12) [3]: most stable
SMILES: N=C(N)NCCC[C@@H](N)C(=O)N1[C@H](C(=O)N2CCC[C@H]2C(=O)O)C[C@@H]2CCCC[C@@H]21 [rOicP] (HELM PEPTIDE1{[dR].[O=C([C@@H]1C[C@@H]2CCCC[C@@H]2N1[*:1])[*:2]].P}$$$$V2.0)
